Experimental data reported in US20120029187A1, “HALOALKYLSULFONANILIDE DERIVATIVE” (Nissan Chemical Industries, Ltd., priority 2009, published 2012).

What was measured:
Assay type in all cases: in vivo
transplanted rice = test: Test Example 1: preemergence treatment under submerged conditions, effect on crop; details: dose 2.52 g/a
Procedure, shortened: (§1)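 Submerged conditions, 4 cm water over alluvial soil. Weeds sown and 2.5-leaf rice transplanted; compound applied preemergence to water surface, doses in g per are. Greenhouse, 25 to 30° C., three weeks, then 0–5 mortality rating.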

Italian ryegrass [1] = test: Test Example 4: herbicidal effect in foliage treatment; details: dose 3.2 g/a, three weeks after the application
Procedure, shortened: (§2)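 Herbicidal effect was rated on an evaluation scale three weeks after treatment. Plants had been raised 14 days at 25 to 30° C in sterilized diluvial soil, then received foliar sprays of emulsifiable concentrate diluted in water at predetermined doses expressed as g per are.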

posumbu knotweed [2] = test: as above; details: dose 3.2 g/a, three weeks after the application
Procedure, shortened: as §2

water foxtail [3] = test: as above; details: dose 3.2 g/a, three weeks after the application
Procedure, shortened: as §2

common chickweed [4] = test: as above; details: dose 3.2 g/a, three weeks after the application
Procedure, shortened: as §2

common lambsquater [5] = test: as above; details: dose 3.2 g/a, three weeks after the application
Procedure, shortened: as §2

velvetleaf [6] = test: as above; details: dose 3.2 g/a, three weeks after the application
Procedure, shortened: as §2

beadstraw = test: as above; details: dose 3.2 g/a, three weeks after the application
Procedure, shortened: as §2

barnyardgrass [7] = test: as above; details: dose 3.2 g/a, three weeks after the application
Procedure, shortened: as §2

common ragweed [8] = test: as above; details: dose 3.2 g/a, three weeks after the application
Procedure, shortened: as §2

large crabgrass [9] = test: as above; details: dose 3.2 g/a, three weeks after the application
Procedure, shortened: as §2

redroot pigweed [10] = test: as above; details: dose 3.2 g/a, three weeks after the application
Procedure, shortened: as §2

giant foxtail [11] = test: as above; details: dose 3.2 g/a, three weeks after the application
Procedure, shortened: as §2

wild oat = test: as above; details: dose 3.2 g/a, three weeks after the application
Procedure, shortened: as §2

bulrush [12] = test: Test Example 2: herbicidal effects during the vegetation period under submerged conditions; details: treatment during the vegetation period under submerged conditions; dose 2.52 g/a
Procedure, shortened: (§3)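 Barnyardgrass, bulrush and ducksalad were co-sown in alluvial soil flooded to 4 cm and grown in a greenhouse at 25 to 30° C. At the 1- or 2-leaf stage, water-diluted emulsifiable concentrates went onto the water surface at set doses (g/a). Herbicidal effect was scored three weeks later on a graded scale.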

barnyardgrass [13] = test: as above; details: treatment during the vegetation period under submerged conditions; dose 2.52 g/a
Procedure, shortened: as §3

ducksalad [14] = test: as above; details: treatment during the vegetation period under submerged conditions; dose 2.52 g/a
Procedure, shortened: as §3

bulrush [15] = test: Test Example 1: herbicidal effects in preemergence treatment under submerged conditions; details: dose 2.52 g/a
Procedure, shortened: as §1

barnyardgrass [16] = test: as above; details: dose 2.52 g/a
Procedure, shortened: as §1

ducksalad [17] = test: as above; details: dose 2.52 g/a
Procedure, shortened: as §1

Italian ryegrass [18] = test: Test Example 3: herbicidal effects in soil treatment; details: dose 3.2 g/a
Procedure, shortened: (§4)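 Seeds were sown in sterilized diluvial soil and covered with about 1.5 cm of soil. Compounds, formulated as emulsifiable concentrates and diluted with water, were sprayed evenly over the soil surface at set doses in g/a. Herbicidal effect was scored on a rating scale three weeks later.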

posumbu knotweed [19] = test: as above; details: dose 3.2 g/a
Procedure, shortened: as §4

water foxtail [20] = test: as above; details: dose 3.2 g/a
Procedure, shortened: as §4

common chickweed [21] = test: as above; details: dose 3.2 g/a
Procedure, shortened: as §4

common lambsquater [22] = test: as above; details: dose 3.2 g/a
Procedure, shortened: as §4

velvetleaf [23] = test: as above; details: dose 3.2 g/a
Procedure, shortened: as §4

barnyardgrass [24] = test: as above; details: dose 3.2 g/a
Procedure, shortened: as §4

common ragweed [25] = test: as above; details: dose 3.2 g/a
Procedure, shortened: as §4

large crabgrass [26] = test: as above; details: dose 3.2 g/a
Procedure, shortened: as §4

redroot pigweed [27] = test: as above; details: dose 3.2 g/a
Procedure, shortened: as §4

giant foxtail [28] = test: as above; details: dose 3.2 g/a
Procedure, shortened: as §4

SMILES	a: transplanted rice, effect on crop (evaluation scale 0-5) (transplanted rice)	H: Italian ryegrass, herbicidal effect (Italian ryegrass [1])	M: posumbu knotweed, herbicidal effect (posumbu knotweed [2])	G: water foxtail, herbicidal effect (water foxtail [3])	N: common chickweed, herbicidal effect (common chickweed [4])	L: common lambsquater, herbicidal effect (common lambsquater [5])	I: velvetleaf, herbicidal effect (velvetleaf [6])	O: beadstraw, herbicidal effect (beadstraw)	A: barnyardgrass, herbicidal effect (barnyardgrass [7])	J: common ragweed, herbicidal effect (common ragweed [8])	D: large crabgrass, herbicidal effect (large crabgrass [9])	K: redroot pigweed, herbicidal effect (redroot pigweed [10])	E: giant foxtail, herbicidal effect (giant foxtail [11])	B: bulrush, herbicidal effect (evaluation scale 0-5) (bulrush [12])	A: barnyardgrass, herbicidal effect (evaluation scale 0-5) (barnyardgrass [13])	C: ducksalad, herbicidal effect (evaluation scale 0-5) (ducksalad [14])	B: bulrush, herbicidal effect (evaluation scale 0-5) (bulrush [15])	A: barnyardgrass, herbicidal effect (evaluation scale 0-5) (barnyardgrass [16])	C: ducksalad, herbicidal effect (evaluation scale 0-5) (ducksalad [17])	herbicidal effect, H: Italian ryegrass (Italian ryegrass [18])	other results
CCOC(=O)N(c1ccccc1CN1COC(C)(C(F)(F)F)C(Br)C1=O)S(=O)(=O)C(F)(F)F (centres unmarked) [II-75]	0 (mortality of less than 5% (almost ineffective))	3 (mortality of at least 40% and less than 70%)	1 (mortality of at least 5% and less than 20%)	2 (mortality of at least 20% and less than 40%)	3 (mortality of at least 40% and less than 70%)	4 (mortality of at least 70% and less than 90%)	3 (mortality of at least 40% and less than 70%)	5 (mortality of 90% or above (nearly complete death))	4 (mortality of at least 70% and less than 90%)	0 (mortality of less than 5% (almost ineffective))	1 (mortality of at least 5% and less than 20%)	3 (mortality of at least 40% and less than 70%)	1 (mortality of at least 5% and less than 20%)	5 (mortality of 90% or above (nearly complete death))	5 (mortality of 90% or above (nearly complete death))	5 (mortality of 90% or above (nearly complete death))	5 (mortality of 90% or above (nearly complete death))	5 (mortality of 90% or above (nearly complete death))	5 (mortality of 90% or above (nearly complete death))	–	F: wild oat, herbicidal effect (wild oat): 0 (mortality of less than 5% (almost ineffective))
CCC1CON(Cc2ccccc2N(C(=O)OCCCl)S(=O)(=O)C(F)(F)F)C(=O)O1 (centres unmarked) [III-7]	0 (mortality of less than 5% (almost ineffective))	0 (mortality of less than 5% (almost ineffective))	0 (mortality of less than 5% (almost ineffective))	5 (mortality of 90% or above (nearly complete death))	3 (mortality of at least 40% and less than 70%)	4 (mortality of at least 70% and less than 90%)	0 (mortality of less than 5% (almost ineffective))	2 (mortality of at least 20% and less than 40%)	5 (mortality of 90% or above (nearly complete death))	4 (mortality of at least 70% and less than 90%)	3 (mortality of at least 40% and less than 70%)	3 (mortality of at least 40% and less than 70%)	3 (mortality of at least 40% and less than 70%)	5 (mortality of 90% or above (nearly complete death))	5 (mortality of 90% or above (nearly complete death))	5 (mortality of 90% or above (nearly complete death))	5 (mortality of 90% or above (nearly complete death))	5 (mortality of 90% or above (nearly complete death))	5 (mortality of 90% or above (nearly complete death))	4 (mortality of at least 70% and less than 90%)	herbicidal effect, M: posumbu knotweed (posumbu knotweed [19]): 4 (mortality of at least 70% and less than 90%); herbicidal effect, G: water foxtail (water foxtail [20]): 5 (mortality of 90% or above (nearly complete death)); herbicidal effect, N: common chickweed (common chickweed [21]): 5 (mortality of 90% or above (nearly complete death)); herbicidal effect, L: common lambsquater (common lambsquater [22]): 4 (mortality of at least 70% and less than 90%); herbicidal effect, I: velvetleaf (velvetleaf [23]): 0 (mortality of less than 5% (almost ineffective)); herbicidal effect, A: barnyardgrass (barnyardgrass [24]): 5 (mortality of 90% or above (nearly complete death)); herbicidal effect, J: common ragweed (common ragweed [25]): 4 (mortality of at least 70% and less than 90%); herbicidal effect, D: large crabgrass (large crabgrass [26]): 5 (mortality of 90% or above (nearly complete death)); herbicidal effect, K: redroot pigweed (redroot pigweed [27]): 1 (mortality of at least 5% and less than 20%); herbicidal effect, E: giant foxtail (giant foxtail [28]): 5 (mortality of 90% or above (nearly complete death))
CCOC(=O)N(c1ccccc1CN1OCC(C)(C)OC1=O)S(=O)(=O)C(F)(F)F [III-11]	0 (mortality of less than 5% (almost ineffective))	3 (mortality of at least 40% and less than 70%)	4 (mortality of at least 70% and less than 90%)	5 (mortality of 90% or above (nearly complete death))	5 (mortality of 90% or above (nearly complete death))	4 (mortality of at least 70% and less than 90%)	4 (mortality of at least 70% and less than 90%)	5 (mortality of 90% or above (nearly complete death))	5 (mortality of 90% or above (nearly complete death))	4 (mortality of at least 70% and less than 90%)	0 (mortality of less than 5% (almost ineffective))	2 (mortality of at least 20% and less than 40%)	4 (mortality of at least 70% and less than 90%)	5 (mortality of 90% or above (nearly complete death))	5 (mortality of 90% or above (nearly complete death))	5 (mortality of 90% or above (nearly complete death))	5 (mortality of 90% or above (nearly complete death))	5 (mortality of 90% or above (nearly complete death))	5 (mortality of 90% or above (nearly complete death))	4 (mortality of at least 70% and less than 90%)	herbicidal effect, M: posumbu knotweed (posumbu knotweed [19]): 5 (mortality of 90% or above (nearly complete death)); herbicidal effect, G: water foxtail (water foxtail [20]): 5 (mortality of 90% or above (nearly complete death)); herbicidal effect, N: common chickweed (common chickweed [21]): 5 (mortality of 90% or above (nearly complete death)); herbicidal effect, L: common lambsquater (common lambsquater [22]): 5 (mortality of 90% or above (nearly complete death)); herbicidal effect, I: velvetleaf (velvetleaf [23]): 4 (mortality of at least 70% and less than 90%); herbicidal effect, A: barnyardgrass (barnyardgrass [24]): 5 (mortality of 90% or above (nearly complete death)); herbicidal effect, J: common ragweed (common ragweed [25]): 5 (mortality of 90% or above (nearly complete death)); herbicidal effect, D: large crabgrass (large crabgrass [26]): 5 (mortality of 90% or above (nearly complete death)); herbicidal effect, K: redroot pigweed (redroot pigweed [27]): 3 (mortality of at least 40% and less than 70%); herbicidal effect, E: giant foxtail (giant foxtail [28]): 5 (mortality of 90% or above (nearly complete death))
